Assay results from ChEMBL document CHEMBL4680193, “Isoindoline scaffold-based dual inhibitors of HDAC6 and HSP90 suppressing the growth of lung cancer in vitro and in vivo” (Eur J Med Chem, 2020).
The source made the active and inactive calls. The calls are words filed in the database; no cut-off is given here.

Legend:
NCI-H1975 [1] = test: Induction of apoptosis in human NCI-H1975 cells assessed as increase in gammaH2AX activation incubated for 48 hrs by PI staining based Western blot analysis; type: functional, cell-based; conditions: dose 0.1-3 µM
[2] = target: T1, Heat shock protein HSP90 (Homo sapiens) (UniProt P07900+P08238); test: Inhibition of HSP90 in human NCI-H1975 cells assessed as upregulation of HSP70 expression at 0.03 to 0.3 uM measured upto 24 hrs by Western blot analysis; type: cell-based; conditions: dose 0.03-0.3 µM, time hrs <=24
Histone deacetylase 8 = target: T2, Histone deacetylase 8 (Homo sapiens, UniProt Q9BY41); test: Inhibition of recombinant human HDAC8 using RHK-K(Ac)-AMC as substrate by fluorescence based assay
T2 sequence (Q9BY41 whole entry): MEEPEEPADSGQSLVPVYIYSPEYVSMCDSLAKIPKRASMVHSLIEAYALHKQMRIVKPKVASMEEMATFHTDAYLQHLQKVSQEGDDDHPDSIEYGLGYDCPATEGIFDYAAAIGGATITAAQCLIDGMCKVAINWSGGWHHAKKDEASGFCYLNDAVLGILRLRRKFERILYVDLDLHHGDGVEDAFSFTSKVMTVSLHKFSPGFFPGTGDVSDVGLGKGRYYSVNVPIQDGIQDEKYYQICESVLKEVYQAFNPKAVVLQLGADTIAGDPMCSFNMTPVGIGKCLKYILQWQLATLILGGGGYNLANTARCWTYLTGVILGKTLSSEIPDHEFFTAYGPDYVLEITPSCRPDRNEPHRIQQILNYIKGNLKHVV

A549 = test: Growth inhibition of human A549 cells incubated for 48 hrs by SRB assay; type: functional; conditions: Homo sapiens, A549
NCI-H1975 [3] = test: Induction of apoptosis in human NCI-H1975 cells assessed as increase in caspase 8 activation incubated for 48 hrs by PI staining based Western blot analysis; type: functional, cell-based; conditions: dose 0.1-3 µM
[4] = target: T3, Protein deacetylase HDAC6 (Homo sapiens, UniProt Q9UBN7); test: Inhibition of recombinant human HDAC6 using RHK-K(Ac)-AMC as substrate by fluorescence based assay
T3 sequence (Q9UBN7 whole entry): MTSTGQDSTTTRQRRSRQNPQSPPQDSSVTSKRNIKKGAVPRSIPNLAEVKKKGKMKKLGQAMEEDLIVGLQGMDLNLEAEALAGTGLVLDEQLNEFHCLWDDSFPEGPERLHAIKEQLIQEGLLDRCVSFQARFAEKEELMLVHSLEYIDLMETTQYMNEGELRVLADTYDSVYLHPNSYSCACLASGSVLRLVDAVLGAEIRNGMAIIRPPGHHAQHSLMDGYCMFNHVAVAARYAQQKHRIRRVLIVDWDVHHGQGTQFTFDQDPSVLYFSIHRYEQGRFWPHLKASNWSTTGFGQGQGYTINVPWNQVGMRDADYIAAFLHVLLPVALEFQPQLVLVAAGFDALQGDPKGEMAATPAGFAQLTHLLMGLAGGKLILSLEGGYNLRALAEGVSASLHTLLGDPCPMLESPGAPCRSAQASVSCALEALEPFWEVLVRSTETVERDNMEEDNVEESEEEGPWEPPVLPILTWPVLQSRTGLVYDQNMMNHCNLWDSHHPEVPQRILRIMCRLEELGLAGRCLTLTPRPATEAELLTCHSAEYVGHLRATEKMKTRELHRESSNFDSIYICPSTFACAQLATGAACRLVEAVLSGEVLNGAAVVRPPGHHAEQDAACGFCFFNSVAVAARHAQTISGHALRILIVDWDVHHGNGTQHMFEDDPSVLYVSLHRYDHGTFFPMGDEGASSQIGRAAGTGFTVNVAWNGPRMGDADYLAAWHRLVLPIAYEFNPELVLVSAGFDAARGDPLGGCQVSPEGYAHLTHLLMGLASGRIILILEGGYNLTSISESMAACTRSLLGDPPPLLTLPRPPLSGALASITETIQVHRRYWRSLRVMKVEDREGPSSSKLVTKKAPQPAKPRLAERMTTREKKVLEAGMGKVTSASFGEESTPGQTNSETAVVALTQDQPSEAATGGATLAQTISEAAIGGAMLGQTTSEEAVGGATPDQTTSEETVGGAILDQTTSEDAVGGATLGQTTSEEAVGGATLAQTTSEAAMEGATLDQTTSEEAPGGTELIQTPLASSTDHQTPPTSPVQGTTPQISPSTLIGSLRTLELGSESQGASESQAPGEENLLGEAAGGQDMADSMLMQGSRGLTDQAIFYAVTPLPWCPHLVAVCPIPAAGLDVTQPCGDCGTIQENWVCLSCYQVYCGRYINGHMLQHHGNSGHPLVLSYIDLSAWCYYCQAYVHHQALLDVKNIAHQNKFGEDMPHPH

Homo sapiens [5] = organism: Homo sapiens; test: Selectivity index, ratio of IC50 for recombinant human HDAC8 to IC50 for recombinant human HDAC6
NCI-H1975 [6] = test: Antitumor activity against human NCI-H1975 cells xenografted in BALB/c mouse assessed as reduction in tumor growth at 50 mg/kg, ip administered for 2 weeks in presence of afatinib and measured after 2 week relative to control; type: functional; conditions: 336 h, read-out: TGI
[7] = target: T1, Heat shock protein HSP90 (Homo sapiens); test: Inhibition of HSP90 in human NCI-H1975 cells assessed as decrease in Akt Ser473 phosphorylation at 3 uM measured after 6 hrs by Western blot analysis; type: cell-based
Homo sapiens [8] = organism: Homo sapiens; test: Selectivity index, ratio of IC50 for recombinant human HDAC3 to IC50 for recombinant human HDAC6
[9] = target: Heat shock protein HSP 90-alpha (Homo sapiens, UniProt P07900); test: Inhibition of HSP90a (unknown origin)
NCI-H1975 [10] = test: Antitumor activity against human NCI-H1975 cells xenografted in BALB/c mouse assessed as reduction in tumor volume at 50 mg/kg, ip administered for 2 weeks and measured after 2 week; type: functional, organism-based
Homo sapiens [11] = organism: Homo sapiens; test: Selectivity index, ratio of IC50 for recombinant human C-terminal FLAG-His-tagged HDAC1 (1 to 482 residues) expressed in Sf21 cells to IC50 for recombinant human HDAC6
Histone deacetylase 1 = Histone deacetylase 1 (Homo sapiens, UniProt Q13547); test: Inhibition of recombinant human C-terminal FLAG-His-tagged HDAC1 (1 to 482 residues) expressed in Sf21 cells using RHK-K(Ac)-AMC as substrate incubated for 60 mins by fluorimetry analysis
NCI-H1975 [12] = test: Induction of cell cycle arrest in human NCI-H1975 cells assessed as increase in subG1 phase at 0.1 to 3 uM incubated for 48 hrs by PI staining based flow cytometry analysis; type: functional; conditions: dose 0.1-3 µM
NCI-H1975 [13] = test: Inhibition of IFN-gamma-induced PD-L1 in human NCI-H1975 cells at 0.3 uM incubated for 48 hrs by Flow cytometry analysis; type: functional, cell-based
NCI-H1975 [14] = test: Inhibition of IFN-gamma-induced PD-L1 in human NCI-H1975 cells incubated for 48 hrs by Western blot analysis; type: functional, cell-based; conditions: dose 0.3-3 µM
Histone deacetylase = type: tissue-based, Homo sapiens; conditions: hela
[15] = target: T1, Heat shock protein HSP90 (Homo sapiens); test: Inhibition of HSP90 in human NCI-H1975 cells assessed as decrease in STAT3 Tyr705 phosphorylation at 3 uM measured after 12 hrs by Western blot analysis; type: cell-based

Sequence of Histone deacetylase 1 (Q13547 whole entry, the tested form may be a part): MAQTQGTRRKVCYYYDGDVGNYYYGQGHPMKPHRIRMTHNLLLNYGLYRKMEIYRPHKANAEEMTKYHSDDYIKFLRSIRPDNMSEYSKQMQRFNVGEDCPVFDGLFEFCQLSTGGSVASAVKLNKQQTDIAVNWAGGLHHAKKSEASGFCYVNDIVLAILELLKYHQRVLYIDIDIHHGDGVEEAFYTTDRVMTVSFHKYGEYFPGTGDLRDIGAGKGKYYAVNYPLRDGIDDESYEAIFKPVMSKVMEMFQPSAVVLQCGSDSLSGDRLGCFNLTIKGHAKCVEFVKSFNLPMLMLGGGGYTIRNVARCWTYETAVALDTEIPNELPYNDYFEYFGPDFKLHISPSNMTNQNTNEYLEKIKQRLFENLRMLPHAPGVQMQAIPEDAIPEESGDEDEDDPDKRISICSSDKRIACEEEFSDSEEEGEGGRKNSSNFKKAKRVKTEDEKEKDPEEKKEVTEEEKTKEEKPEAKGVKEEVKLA

- inhibition [2]: Active
- IC50 (Histone deacetylase 8): 3.72 µM
- GI50 (A549): 760 nM
- IC50 [4]: 4.32 nM
- Ratio IC50 (Homo sapiens [5]): 861
- inhibition [7]: Active
- Ratio IC50 (Homo sapiens [8]): 303
- IC50 [9]: 46.8 nM
- IC50 (Histone deacetylase 1): 1880 nM
- IC50 (Histone deacetylase): 388.8 nM
- inhibition [15]: Active
SMILES: CC(C)c1cc(C(=O)N2Cc3ccc(NC(=O)CCCCCCCCC(=O)NO)cc3C2)c(O)cc1O
- Activity (NCI-H1975 [1]): Dose-dependent effect
- Activity (NCI-H1975 [3]): Dose-dependent effect
- inhibition in vivo at 50 mg/kg (NCI-H1975 [6]): 72.3%
- Activity (NCI-H1975 [10]): Active
- Ratio IC50 (Homo sapiens [11]): 434
- Activity (NCI-H1975 [12]): Active
- inhibition (NCI-H1975 [13]): Active
- inhibition (NCI-H1975 [14]): Dose-dependent effect
